Tests used:
[1] = system: Streptococcus faecium 10541; details: Streptococcus faecium 10541, Gram Positive; cited from earlier work
Escherichia coll 25254 = details: Escherichia coll 25254, Gram Negative; cited from earlier work
[2] = system: Streptococcus-pyogenes 7958; details: Streptococcus-pyogenes 7958, Gram Positive; cited from earlier work
Bacillus subtilis 6633 = details: Bacillus subtilis 6633, Gram Positive; cited from earlier work
[3] = system: Enterobacter cloacae 13047; details: Enterobacter cloacae 13047, Gram Negative; cited from earlier work
[4] = system: Staphylococcus aureus 27543; details: Staphylococcus aureus 27543, Gram Positive; cited from earlier work
[5] = system: Saccharomyces cerevisiae 2601; details: Saccharomyces cerevisiae 2601, Yeast and Mold; cited from earlier work
Candida albicans 16404 = details: Candida albicans 16404, Yeast and Mold; cited from earlier work
[6] = system: Pseudomonas aeruginosa 9027; details: Pseudomonas aeruginosa 9027, Gram Negative; cited from earlier work
[7] = system: Staphylococcus epidermidis 12228; details: Staphylococcus epidermidis 12228, Gram Positive; cited from earlier work
Escherichia coll 10231 = details: Escherichia coll 10231, Gram Negative; cited from earlier work
Micrococcus lutena 9341 = details: Micrococcus lutena 9341, Gram Positive; cited from earlier work
[8] = system: Streptococcus agalactiae 27956; details: Streptococcus agalactiae 27956, Gram Positive; cited from earlier work
[9] = system: all Gram positive bacteria listed in Table 1; details: extrapolated from virulent Staph result
From the text: (§1) An independent medical researcher in Israel obtained a very virulent strain of Staph from a patient at the Shaarei Tzedek Hospital in Jerusalem. […] This Staph strain was utilized as the Staph source, and the otherwise exact test protocol described above was repeated. […] Only one test swatch was used for the Staph evaluation.

[10] = system: all Gram Negative bacteria listed in Table 1; details: same reasoning applied to PA marker
From the text: as §1

[11] = system: Staphylococcus aureus 0927; details: Staphylococcus aureus 0927, Gram Positive; cited from earlier work
[12] = system: very virulent strain of Staph; type: cell-based; details: calculated from inhibition zone being inversely proportional to MIC
From the text: as §1

## [Ag+].[Ag+].[Ag+].[Ag+].[O-2].[O-2].[O-2].[O-2] [Ag4O4, tetrasilver tetroxide]
[1]
  MIC (Minimal Inhibitory Concentration): 5.00 PPM
Escherichia coll 25254
  MIC (Minimal Inhibitory Concentration): 2.50 PPM
[2]
  MIC (Minimal Inhibitory Concentration): 2.50 PPM
Bacillus subtilis 6633
  MIC (Minimal Inhibitory Concentration): 5.00 PPM
[3]
  MIC (Minimal Inhibitory Concentration): 2.50 PPM
[4]
  MIC (Minimal Inhibitory Concentration): 5.00 PPM
[5]
  MIC (Minimal Inhibitory Concentration): 1.25 PPM
Candida albicans 16404
  MIC (Minimal Inhibitory Concentration): 2.50-5.0 PPM
[6]
  MIC (Minimal Inhibitory Concentration): 1.25-2.50 PPM
[7]
  MIC (Minimal Inhibitory Concentration): 0.625 PPM
Escherichia coll 10231
  MIC (Minimal Inhibitory Concentration): 2.50 PPM
Micrococcus lutena 9341
  MIC (Minimal Inhibitory Concentration): 1.25-2.50 PPM
[8]
  MIC (Minimal Inhibitory Concentration): 1.25-5.00 PPM
[9]
  inhibition of all listed Gram positive bacteria: capable of inhibiting
[10]
  inhibition of all Gram Negative bacteria listed in Table 1: inhibition
[11]
  MIC (Minimal Inhibitory Concentration): 2.50-5.00 PPM
[12]
  MIC for the virulent Staph strain: 40.5-61.0 PPM

Source: patent US6436420B1, “High performance silver (I,III) oxide antimicrobial textile articles” (Marantech Holding, LLC, priority 2000, dated 2002)
